The IC50 is the concentration at which inhibition is half-maximal.

Structures are written as SMILES. The source made the active and inactive calls. The calls are words filed in the database; no cut-off is given here.

Series [1] relates to PBMC. Briefly: Inhibition of Con A-induced phospho-GATA3 expression in human PBMC at 90 uM after 72 hrs by flow cytometry. The class given is functional, cell-based.
For series [2], the system named is PBMC. Briefly: Inhibition of PMA-induced GATA3 expression in human PBMC at 90 uM after 15 mins by Western blot analysis. The class given is functional, cell-based. Background: Immunoblotting shows a protein as a band on a membrane.
In series [3] the test system is PBMC. Briefly: Immunosuppressant activity in human PBMC assessed as reduction in Con A-induced extracellular IL4 level at 90 uM after 72 hrs by ELISA relative to untreated control. The class given is functional. In general terms: An ELISA detects its analyte on a solid surface through an enzyme-linked reagent.
Series [4] has as its system PBMC. The series is described as follows: Inhibition of Con-A-induced phospho-STAT6 expression in human PBMC at 90 uM after 72 hrs by flow cytometry (reference value: 10.52+/-1.9%). The class given is functional. Conditions: read-out: INH.
Series [5] deals with PBMC. Briefly: Inhibition of PMA-induced JAK1 expression in human PBMC at 90 uM after 15 mins by Western blot analysis. The class given is functional, cell-based.
Series [6] has as its system T-cell. Briefly: Inhibition of CD4 expression in human CD4+ T cells. The class given is functional, cell-based.
The test system of series [7] is T-cell. The series is described as follows: Immunosuppressant activity in human CD4+ T cells assessed as Con A-induced intracellular IL4 level at 90 uM after 72 hrs by flow cytometry (reference value: 4.2+/-0.9%). The class given is functional. (Flow cytometry measures light scatter and fluorescence of single cells or particles in a stream.)
For series [8], the target named is Tyrosine-protein kinase JAK1 (Homo sapiens) (UniProt P23458). Briefly: Inhibition of JAK1-mediated GATA3 phosphorylation in PMA-stimulated human PBMC at 90 uM after 30 mins by Western blot analysis.
Series [9] concerns PBMC. Briefly: Inhibition of ConA-induced phospho-JAK1 expression in human PBMC at 90 uM after 72 hrs by flow cytometry. The class given is functional, cell-based.
In series [10] the target is Tyrosine-protein kinase JAK1 (Homo sapiens) (UniProt P23458). The series is described as follows: Inhibition of PMA-induced JAK1 phosphorylation in human PBMC at 90 uM after 15 mins by Western blot analysis.
Series [11] concerns Mus musculus. Briefly: Immunosuppressant activity in C57BL/6 mouse infected with Schistosoma japonicum assessed as inhibition of IFN-gamma production in spleen at 100 mM, iv after 45 days by ELISA. The class given is functional, organism-based.
Series [12] in a line: Induction of apoptosis in Con A-stimulated human PBMC assessed as viable cells at 90 uM after 72 hrs by annexin V/PI based flow cytometric analysis (reference value: 84.6 %). The settings on record: read-out: Activity. The class given is cell-based.
The test system of series [13] is T-cell. Briefly: Immunosuppressant activity in human CD3+ CD4+ T cells pretreated with TritonX 100 assessed as reduction in CD4 surface expression at 90 uM after 72 hrs by flow cytometry (reference value: 46%). The class given is functional. The arrangement: scale not given: the % may be the effect or the level left.
Series [14] relates to Mus musculus. The series is described as follows: Immunosuppressant activity in C57BL/6 mouse infected with Schistosoma japonicum assessed as inhibition of IFN-gamma production in liver at 100 mM, iv after 56 days by ELISA. The class given is functional, organism-based.
The subject of series [15] is Mus musculus. Briefly: Immunosuppressant activity in C57BL/6 mouse infected with Schistosoma japonicum assessed as inhibition of IL-4 production in spleen at 100 mM, iv after 56 days by ELISA. The class given is functional, organism-based.
In series [16] the test system is T-cell. The series is described as follows: Immunosuppressant activity in human CD3+ CD4+ T cells assessed as reduction in CD4 surface expression at 90 uM after 72 hrs by flow cytometry (reference value: 46%). The class given is functional. On the set-up: scale not given: the % may be the effect or the level left.
Series [17] relates to Mus musculus. The series is described as follows: Immunosuppressant activity in C57BL/6 mouse infected with Schistosoma japonicum assessed as inhibition of IL-4 production in liver at 100 mM, iv after 45 days by ELISA. The class given is functional, organism-based.
Series [18] deals with T-cell. The series is described as follows: Immunosuppressant activity in human CD3+ CD4+ T cells pretreated with TritonX 100 assessed as CD4 internalization at 90 uM after 72 hrs by confocal laser scanning microscopy. The class given is functional, cell-based.
The subject of the next series is Schistosoma japonicum. Briefly: Antischistosomiasis activity against Schistosoma japonicum infected in C57BL/6 mouse at 100 mM, iv after 45 days. The class given is functional, organism-based.
In series [19] the test system is Mus musculus. The series is described as follows: Immunosuppressant activity in C57BL/6 mouse infected with Schistosoma japonicum assessed as inhibition of IFN-gamma production in liver at 100 mM, iv after 45 days by ELISA. The class given is functional, organism-based.
In series [20] the test system is Mus musculus. Briefly: Immunosuppressant activity in C57BL/6 mouse infected with Schistosoma japonicum assessed as inhibition of IFN-gamma production in spleen at 100 mM, iv after 56 days by ELISA. The class given is functional, organism-based.
For series [21], the system named is Mus musculus. Briefly: Immunosuppressant activity in C57BL/6 mouse infected with Schistosoma japonicum assessed as decrease in liver granuloma size at 100 mM, iv after 45 days. The class given is functional, organism-based.
For series [22], the system named is PBMC. Briefly: Induction of apoptosis in Con A-stimulated human PBMC assessed as late apoptotic cells at 90 uM after 72 hrs by annexin V/PI based flow cytometric analysis (reference value: 4.3 %). The class given is cell-based.
Series [23] addresses Tyrosine-protein kinase JAK1 (Homo sapiens) (UniProt P23458). The series is described as follows: Inhibition of PMA-induced JAK1 phosphorylation in human PBMC at 90 uM by Western blot analysis. Conditions: TDE = time-dependent effect.
Series [24] relates to PBMC. The series is described as follows: Induction of apoptosis in Con A-stimulated human PBMC assessed as early apoptotic cells at 90 uM after 72 hrs by annexin V/PI based flow cytometric analysis (reference value: 6.3 %). The class given is cell-based.
In the next series the test system is Splenocyte. Briefly: Immunosuppressant activity in BALB/c mouse splenocytes assessed as reduction in Con A-induced IL4 secretion at 90 uM after 72 hrs by ELISA. The class given is functional, cell-based.
Series [25] concerns Mus musculus. The series is described as follows: Immunosuppressant activity in C57BL/6 mouse infected with Schistosoma japonicum assessed as inhibition of IL-4 production in liver at 100 mM, iv after 56 days by ELISA. The class given is functional, organism-based.
Series [26] addresses Tyrosine-protein kinase JAK1 (Homo sapiens) (UniProt P23458). The series is described as follows: Inhibition of JAK1-mediated GATA3 phosphorylation in PMA-stimulated human PBMC at 90 uM by Western blot analysis. Conditions: TDE = time-dependent effect.
Series [27] deals with PBMC. The series is described as follows: Induction of apoptosis in Con A-stimulated human PBMC assessed as necrotic cells at 90 uM after 72 hrs by annexin V/PI based flow cytometric analysis (reference value: 5.8 %). The class given is cell-based.

Sequence of Tyrosine-protein kinase JAK1 (Homo sapiens) (P23458 whole entry): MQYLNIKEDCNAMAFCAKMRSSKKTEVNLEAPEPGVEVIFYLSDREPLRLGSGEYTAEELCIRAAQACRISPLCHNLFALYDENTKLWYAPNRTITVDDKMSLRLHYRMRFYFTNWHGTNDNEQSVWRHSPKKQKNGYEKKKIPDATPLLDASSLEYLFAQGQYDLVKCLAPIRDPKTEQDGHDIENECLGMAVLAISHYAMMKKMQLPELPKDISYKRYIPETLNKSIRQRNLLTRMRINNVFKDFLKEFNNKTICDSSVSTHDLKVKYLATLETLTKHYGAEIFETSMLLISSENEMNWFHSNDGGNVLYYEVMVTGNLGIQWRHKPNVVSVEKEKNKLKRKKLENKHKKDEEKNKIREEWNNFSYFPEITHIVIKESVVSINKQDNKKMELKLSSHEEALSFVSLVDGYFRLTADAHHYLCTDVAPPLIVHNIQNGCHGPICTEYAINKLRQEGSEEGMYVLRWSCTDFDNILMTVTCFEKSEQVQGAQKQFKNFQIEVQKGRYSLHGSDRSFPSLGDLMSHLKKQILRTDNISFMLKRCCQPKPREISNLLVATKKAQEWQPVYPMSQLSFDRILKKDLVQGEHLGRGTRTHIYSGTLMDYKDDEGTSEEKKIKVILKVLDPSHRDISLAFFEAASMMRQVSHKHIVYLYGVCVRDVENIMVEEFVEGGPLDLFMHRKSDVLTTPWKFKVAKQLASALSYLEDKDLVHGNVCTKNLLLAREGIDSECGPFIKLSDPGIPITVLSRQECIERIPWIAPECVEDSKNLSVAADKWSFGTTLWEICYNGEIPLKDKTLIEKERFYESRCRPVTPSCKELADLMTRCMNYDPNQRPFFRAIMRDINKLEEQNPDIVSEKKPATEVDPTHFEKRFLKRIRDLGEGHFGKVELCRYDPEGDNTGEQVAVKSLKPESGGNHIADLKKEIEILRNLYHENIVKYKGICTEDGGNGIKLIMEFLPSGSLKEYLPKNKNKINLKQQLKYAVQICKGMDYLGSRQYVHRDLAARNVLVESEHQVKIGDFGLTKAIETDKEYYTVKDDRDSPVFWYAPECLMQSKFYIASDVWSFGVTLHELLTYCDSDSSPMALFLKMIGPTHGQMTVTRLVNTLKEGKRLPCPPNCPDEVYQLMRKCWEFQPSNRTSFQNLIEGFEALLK

In the case of `OC[C@H]1NC[C@H](O)[C@@H](O)[C@@H]1O` [DUVOGLUSTAT], the inhibition result in the series on PBMC [1] and in the series on PBMC [9] was “Active” throughout. Moreover, the inhibition entry (with PBMC [2]; with PBMC [5]; in series [8]; in series [10]) was “inactive” in each case. For the same compound, the outcome in the series with PBMC [3] was inactive. In the series on PBMC [4], the phospho-STAT6 expression level at 90 µM was 9.6%. In the series on T-cell [6], this compound gave an IC50 of 25.6 µM. Moreover, the Activity in the series with T-cell [7] is recorded as 2.53%.
`C/C=C/C[C@@H](C)[C@@H](O)[C@H]1C(=O)N[C@@H](CC)C(=O)N(C)CC(=O)N(C)[C@@H](CC(C)C)C(=O)N[C@@H](C(C)C)C(=O)N(C)[C@@H](CC(C)C)C(=O)N[C@@H](C)C(=O)N[C@H](C)C(=O)N(C)[C@@H](CC(C)C)C(=O)N(C)[C@@H](CC(C)C)C(=O)N(C)[C@@H](C(C)C)C(=O)N1C` [CYCLOSPORINE]: the Activity worked out at 26% in the series with PBMC [3] and 0.71% with T-cell [7]. Besides, the phospho-STAT6 expression level at 90 µM in the series with PBMC [4] came to 3.7%.
In the case of `OC[C@H]1NC[C@@H](O)[C@@H](O)[C@@H]1O` [DEOXYMANNOJIRIMYCIN], the inhibition result in the series on PBMC [1] and in the series on PBMC [9] was “Active” in each case. The inhibition result (in the series on PBMC [2]; with PBMC [5]; in series [8]; in series [10]) was “inactive” in each case. In addition, in the series with PBMC [4], the phospho-STAT6 expression level at 90 µM stood at 8.8%. The Activity in the series with T-cell [7] worked out at 1.5%.
In the case of `OC[C@@H]1[C@@H](O)[C@H](O)[C@@H](O)CN1Cc1c(F)c(F)c(F)c(F)c1F`, the inhibition result in the series with Mus musculus [11], in the series on Mus musculus [14], with PBMC [2], in the series on Mus musculus [17], in the series with Mus musculus [19] and in the series on Mus musculus [20] was “inactive” each time. For the same compound, the inhibition result in the series with PBMC [5] and with Mus musculus [25] was “inactive” throughout. Also, the viability at 72 h, 90 µM in series [12] was 83%. In addition, the Activity is 44% in the series on T-cell [13]; 28% in the series on T-cell [16]; 26% in the series on PBMC [3]; 5.2% in the series with PBMC [22]; 7.2% with PBMC [24]; 0.79% in the series on T-cell [7]. For the same compound, the Activity with PBMC [27] is reported as 4.7%. Besides, the inhibition result (with Mus musculus [15]; with PBMC [1]; in series [8]; with PBMC [9]; in series [10]) was “Active” each time. Also, the outcome in the series on T-cell [18], in the series with Schistosoma japonicum, in the series on Mus musculus [21] and with Splenocyte was Active. Besides, the inhibition result in series [23] and in series [26] was “tde” in each case. The phospho-STAT6 expression level at 90 µM in the series on PBMC [4] came to 4.5%. The compound also displayed a half-inhibitory concentration (IC50) with T-cell [6] of 20.2 µM.

Values taken from ChEMBL document CHEMBL1955762, “An iminosugar N-pentafluorobenzyl-1-deoxynojirimycin as a novel potential immunosuppressant for the treatment of Th2-related diseases” (Bioorg Med Chem Lett, 2012).
